Assays:
Format in all cases: in vivo
[1] = tested on: large crabgrass (Digitaria sanguinalis); experiment: Pre-emergence application, herbicidal effect on large crabgrass (Table 1); parameters: key: 0: not damaged; 5: completely killed; conditions: 20 days after application, score 0-5
Outline: (§1)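 Scores run from 0 (undamaged) to 5 (fully killed), read 20 days post-treatment. Compounds were applied as water-diluted wettable powders to soil over freshly covered seeds in ~10 cm pots, with plants kept in a greenhouse.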

[2] = tested on: redroot pigweed (Amaranthus retroflexus); experiment: Pre-emergence application, herbicidal effect on redroot pigweed (Table 1); parameters: key: 0: not damaged; 5: completely killed; conditions: 20 days after application, score 0-5
Outline: as §1

[3] = tested on: barnyard grass (Echinochloa crus-galli); experiment: Water application, herbicidal effect on barnyard grass (Table 2); parameters: key: 0: not damaged; 5: completely killed; conditions: 25 days, score 0-5
Outline: (§2)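 Scores (0–5) taken 25 days post-treatment. Wettable-powder formulations were applied into standing water over paddy soil holding 3-leaf-stage transplanted rice, sown Echinochloa and naturally emerging monochoria, false pimpernel and toothcup.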

radish = experiment: Pre-emergence application, herbicidal effect on radish (Table 1); parameters: key: 0: not damaged; 5: completely killed; conditions: 20 days after application, score 0-5
Outline: as §1

[4] = tested on: common lambsquarter (Chenopodium album); experiment: Pre-emergence application, herbicidal effect on common lambsquarter (Table 1); parameters: key: 0: not damaged; 5: completely killed; conditions: 20 days after application, score 0-5
Outline: as §1

[5] = tested on: broad-leaved weeds, e.g., monochoria, false pimpernel and toothcup; experiment: Water application, herbicidal effect on broad-leaved weeds (Table 2); parameters: key: 0: not damaged; 5: completely killed; conditions: 25 days, score 0-5
Outline: as §2

[6] = tested on: barnyard grass (Echinochloa crus-galli); experiment: Water application, herbicidal effect on barnyard grass (Table 2); parameters: key: 0: no effect; 1: very slightly affected; 2: slightly affected; 3: moderately affected; 4: considerably affected; 5: completely killed; conditions: 25 days, score 0-5
Excerpt: Wagner pots of 14 cm. in diameter, which had been packed with 1.5 kg. of paddy field soil, were brought into the state of paddy fields. To the pots were transplanted rice seedlings at the 3-leave stage. Further, seeds of barnyard grass (Echinochloa crus-galli) were sowed in the pots and required amounts of test compounds were applied to the soil under water lodged condition. 25 days after application, the degrees of herbicidal activity and phytotoxity were investigated on above-mentioned plants which had been transplanted and sowed, and on broad-leaved weeds, e.g., monochoria (Monochoria viaginalis Presl.), false pimpernel (Linderna pyxidaria) and toothcup (Rotala indica Koehue), which had been spontaneously germinated. The test compounds were used in the form of wettable powder. The herbicidal effects and the phytotoxity were evaluated as follows by the numerals ranging from 0 to 5.

[7] = tested on: common purslane (Portulaca oleracea); experiment: Pre-emergence application, herbicidal effect on common purslane (Table 1); parameters: key: 0: not damaged; 5: completely killed; conditions: 20 days after application, score 0-5
Outline: as §1

rice = experiment: Water application, phytotoxicity on rice (Table 2); parameters: key: 0: no effect; 1: very slightly affected; 2: slightly affected; 3: moderately affected; 4: considerably affected; 5: completely killed; conditions: 25 days, score 0-5
Outline: as §2

[8] = tested on: barnyard grass (Echinochloa crus-galli); experiment: Pre-emergence application, herbicidal effect on barnyard grass (Table 1); parameters: key: 0: not damaged; 5: completely killed; conditions: 20 days after application, score 0-5
Outline: as §1

| Compound | Herbicidal effect, large crabgrass ([1]; 10 g./a.) | Herbicidal effect, large crabgrass ([1]; 20 g./a.) | Herbicidal effect, large crabgrass ([1]; 40 g./a.) | Herbicidal effect, redroot pigweed ([2]; 10 g./a.) | Herbicidal effect, redroot pigweed ([2]; 20 g./a.) | Herbicidal effect, redroot pigweed ([2]; 40 g./a.) | Herbicidal effects, barnyard grass ([3]; 20 g/a) | Herbicidal effects, barnyard grass ([3]; 40 g/a) | Herbicidal effect, radish (radish; 10 g./a.) | Herbicidal effect, radish (radish; 20 g./a.) | Herbicidal effect, radish (radish; 40 g./a.) | Herbicidal effect, common lambsquarter ([4]; 10 g./a.) | Herbicidal effect, common lambsquarter ([4]; 20 g./a.) | Herbicidal effect, common lambsquarter ([4]; 40 g./a.) | Herbicidal effects, broad-leaved weeds ([5]; 10 g/a) | Herbicidal effects, broad-leaved weeds ([5]; 20 g/a) | Herbicidal effects, broad-leaved weeds ([5]; 40 g/a) | Herbicidal effects, barnyard grass ([6]; 10 g/a) | Herbicidal effect, common purslane ([7]; 10 g./a.) | Herbicidal effect, common purslane ([7]; 20 g./a.) | also measured |
| --- | --- | --- | --- | --- | --- | --- | --- | --- | --- | --- | --- | --- | --- | --- | --- | --- | --- | --- | --- | --- | --- |
| CCOP(=O)(SCC(=O)N1CCCCC1C)SCC(C)c1ccccc1 (stereo not drawn) [Compound 65] | 5 | 5 | 5 | 4 | 4 | 5 | 5 | 5 | 0 | 0 | 0 | 4 | 4 | 5 | 5 | 5 | 5 | 4 | 4 | 4 | Herbicidal effect, common purslane ([7]; 40 g./a.): 5; Phytotoxicity on rice (rice; 10 g/a): 0; Phytotoxicity on rice (rice; 20 g/a): 0; Phytotoxicity on rice (rice; 40 g/a): 0; Herbicidal effect, barnyard grass ([8]; 10 g./a.): 5; Herbicidal effect, barnyard grass ([8]; 20 g./a.): 5; Herbicidal effect, barnyard grass ([8]; 40 g./a.): 5 |
| Oc1c(Cl)c(Cl)c(Cl)c(Cl)c1Cl [PCP, reference compound] | – | – | – | – | – | – | – | – | – | – | – | – | – | – | – | – | – | – | – | – | Herbicidal effect, large crabgrass ([1]; 50 g./a.): 2; Herbicidal effect, large crabgrass ([1]; 100 g./a.): 4; Herbicidal effect, redroot pigweed ([2]; 50 g./a.): 2; Herbicidal effect, redroot pigweed ([2]; 100 g./a.): 4; Herbicidal effects, barnyard grass ([3]; 100 g/a): 5; Herbicidal effect, radish (radish; 50 g./a.): 1; Herbicidal effect, radish (radish; 100 g./a.): 4; Herbicidal effect, common lambsquarter ([4]; 50 g./a.): 2; Herbicidal effect, common lambsquarter ([4]; 100 g./a.): 4; Herbicidal effects, broad-leaved weeds ([5]; 50 g/a): 5; Herbicidal effects, broad-leaved weeds ([5]; 100 g/a): 5; Herbicidal effects, barnyard grass ([6]; 50 g/a): 4; Herbicidal effect, common purslane ([7]; 50 g./a.): 2; Herbicidal effect, common purslane ([7]; 100 g./a.): 4; Phytotoxicity on rice (rice; 50 g/a): 2; Phytotoxicity on rice (rice; 100 g/a): 3; Herbicidal effect, barnyard grass ([8]; 50 g./a.): 2; Herbicidal effect, barnyard grass ([8]; 100 g./a.): 3 |
| C=CCSP(=O)(OCCC)SCC(=O)N1CCCCC1CC (stereo not drawn) [Compound 91] | 5 | 5 | 5 | 3 | 3 | 4 | 5 | 5 | 0 | 0 | 0 | 3 | 3 | 4 | 5 | 5 | 5 | 4 | 3 | 4 | Herbicidal effect, common purslane ([7]; 40 g./a.): 4; Phytotoxicity on rice (rice; 10 g/a): 0; Phytotoxicity on rice (rice; 20 g/a): 0; Phytotoxicity on rice (rice; 40 g/a): 0; Herbicidal effect, barnyard grass ([8]; 10 g./a.): 4; Herbicidal effect, barnyard grass ([8]; 20 g./a.): 5; Herbicidal effect, barnyard grass ([8]; 40 g./a.): 5 |
